This assay concerns the target NaV1.8 (Homo sapiens, UniProt Q9Y5Y9). Briefly: Activity against NaV 1.8 channel (Table 3), optical membrane potential / electrophysiology assays. Format: cell-based. The procedure: Compounds of the invention are useful as antagonists of voltage-gated sodium ion channels. Antagonist properties of test compounds were assessed as follows. Cells expressing the NaV of interest were placed into microtiter plates. After an incubation period, the cells were stained with fluorescent dyes sensitive to the transmembrane potential. The test compounds were added to the microtiter plate. The cells were stimulated with either a chemical or electrical means ti evoke a NaV dependent membrane potential change from unblocked channels, which was detected and measured with trans-membrane potential-sensitive dyes. Antagonists were detected as a decreased membrane potential response to the stimulus. The optical membrane potential assay utilized voltage-sensitive FRET sensors described by Gonzalez and Tsien (See, Gonzalez, J. E. and R. Y. Tsien (1995) “Voltage sensing by fluorescence resonance energy transfer in single cells” Biophys J 69(4): 1272-80, and Gonzalez, J. E. and R. Y. Tsien (1997) “Improved indicators of cell membrane potential that use fluorescence resonance energy transfer” Chem Biol 4(4): 269-77) in combination with instrumentation for measuring fluorescence changes such as the Voltage/Ion Probe Reader (VIPR®) (See, Gonzalez, J. E., K. Oades, et al. (1999) “Cell-based assays and instrumentation for screening ion-channel targets” Drug Discov Today 4(9): 431-439).
The following is an example of how NaV1.3 inhibition activity is measured using the optical membrane potential method #2. Other subtypes are performed in an analogous mode in a cell line expressing the NaV of interest.
HEK293 cells stably expressing NaV1.3 are plated into 96-well microtiter plates. After an appropriate incubation period, the cells are stained with the voltage sensitive dyes CC2-DMPE/DiSBAC2(3) as follows.
2X CC2-DMPE=20 μM CC2-DMPE: 10 mM CC2-DMPE is vortexed with an equivalent volume of 10% pluronic, followed by vortexing in required amount of HBSS containing 10 mM HEPES. Each cell plate will require 5 mL of 2X CC2-DMPE. 50 μL of 2X CC2-DMPE is to wells containing washed cells, resulting in a 10 μM final staining concentration. The cells are stained for 30 minutes in the dark at RT.
2X DISBAC2(3) with ABSC1=6 μM DISBAC2(3) and 1 mM ABSC1: The required amount of 10 mM DISBAC2(3) is added to a 50 ml conical tube and mixed with 1 μL 10% pluronic for each mL of solution to be made and vortexed together. Then HBSS/HEPES is added to make up 2X solution. Finally, the ABSC1 is added.
The 2X DiSBAC2(3) solution can be used to solvate compound plates. Note that compound plates are made at 2X drug concentration. Wash stained plate again, leaving residual volume of 50 μL. Add 50 uL/well of the 2X DiSBAC2(3) w/ABSC1. Stain for 30 minutes in the dark at RT.
The electrical stimulation instrument and methods of use are described in ION Channel Assay Methods PCT/US01/21652, herein incorporated by reference. The instrument comprises a microtiter plate handler, an optical system for exciting the coumarin dye while simultaneously recording the coumarin and oxonol emissions, a waveform generator, a current- or voltage-controlled amplifier, and a device for inserting electrodes in well. Under integrated computer control, this instrument passes user-programmed electrical stimulus protocols to cells within the wells of the microtiter plate.
Assay Protocol • 1. Insert or use electrodes into each well to be assayed. • 2. Use the current-controlled amplifier to deliver stimulation wave pulses for 3 s. Two seconds of pre-stimulus recording are performed to obtain the un-stimulated intensities. Five seconds of post-stimulation recording are performed to examine the relaxation to the resting state.
Data are analyzed and reported as normalized ratios of background-subtracted emission intensities measured in the 460 nm and 580 nm channels. Background intensities are then subtracted from each assay channel. […]

The term IC50 denotes the concentration at which inhibition is half-maximal. Consider `CC(C)(C)c1ccc(C(=O)Nc2cccc(S(N)(=O)=O)c2)c(Oc2ccccc2)c1` [Compound 1], for which the IC50 is below 2 µM.
With `Cc1cc(Br)ccc1C(=O)Nc1cccc(S(N)(=O)=O)c1` [Compound 2] the figure was above 10 µM; with `NS(=O)(=O)c1cccc(NC(=O)c2ccc(Cl)c(Cl)c2)c1` [Compound 3], above 10 µM; with `NS(=O)(=O)c1cccc(NC(=O)c2ccccc2-n2cccc2)c1` [Compound 4], above 10 µM.
With `NS(=O)(=O)c1cccc(NC(=O)c2ccc(Cc3ccccc3)cc2)c1` [Compound 5] the figure was above 10 µM.
As to `NS(=O)(=O)c1cccc(NC(=O)c2ccccc2Nc2cccc(F)c2)c1` [Compound 6], the IC50 was above 10 µM.
With `NS(=O)(=O)c1cccc(NC(=O)c2ccccc2Cc2ccccc2)c1` [Compound 7] the figure was below 2 µM.
With `NS(=O)(=O)c1cccc(NC(=O)c2ccc(C(F)(F)F)cc2)c1` [Compound 8] the figure was above 10 µM; with `COc1ccc(C(=O)Nc2cccc(S(N)(=O)=O)c2)cc1OC` [Compound 9], above 10 µM.
As for `CC(C)c1ccc(C(=O)Nc2cccc(S(N)(=O)=O)c2)cc1` [Compound 10], the figure is 2 to 10 µM; as for `NS(=O)(=O)c1cccc(NC(=O)c2ccccc2-c2cccnc2)c1` [Compound 11], above 10 µM; as for `NS(=O)(=O)c1cccc(NC(=O)c2ccccc2COc2ccccc2)c1` [Compound 12], 2 to 10 µM.
In the case of `NS(=O)(=O)c1cccc(NC(=O)c2ccc(Br)cc2)c1` [Compound 13], the IC50 was above 10 µM.
`CNS(=O)(=O)c1cccc(NC(=O)c2ccc(C(C)(C)C)cc2)c1` [Compound 14]: the 50% inhibitory concentration (IC50) lay in the range of 2 to 10 µM.
With `NS(=O)(=O)c1cccc(NC(=O)c2cccc(Oc3ccccc3)c2)c1` [Compound 15] the figure was 2 to 10 µM; with `NS(=O)(=O)c1cccc(NC(=O)c2ccccc2Oc2ccc(C(F)(F)F)cc2)c1` [Compound 16], below 2 µM; with `NS(=O)(=O)c1cccc(NC(=O)c2ccccc2Nc2cccc(Oc3ccccc3)c2)c1` [Compound 17], above 10 µM.
With `NS(=O)(=O)c1cccc(NC(=O)c2cccc(C(=O)c3ccccc3)c2)c1` [Compound 18] the figure was above 10 µM.
With `NS(=O)(=O)c1cccc(NC(=O)c2ccc(-c3ncc[nH]3)cc2)c1` [Compound 19] the figure was above 10 µM; with `NS(=O)(=O)c1cccc(NC(=O)c2ccccc2NC(=O)c2cccnc2)c1` [Compound 20], above 10 µM; with `NS(=O)(=O)c1cccc(NC(=O)c2ccccc2Oc2ccccc2Cl)c1` [Compound 21], below 2 µM.
On to `COc1ccc(C(=O)Nc2cccc(S(N)(=O)=O)c2)cc1` [Compound 22], for which the IC50 was above 10 µM.
On to `COc1ccccc1Oc1ccccc1C(=O)Nc1cccc(S(N)(=O)=O)c1` [Compound 23], for which the IC50 is below 2 µM.
Consider `Cc1c(Cl)cc(NC(=O)c2ccc(C(C)(C)C)cc2)cc1S(N)(=O)=O` [Compound 24], for which the IC50 was above 10 µM.
As for `Cc1cc(C)c(S(N)(=O)=O)cc1NC(=O)c1ccc(C(C)(C)C)cc1` [Compound 25], the figure is above 10 µM; as for `CC(C)(C)c1cccc(Nc2ccccc2C(=O)Nc2cccc(S(N)(=O)=O)c2)c1` [Compound 26], above 10 µM; as for `NS(=O)(=O)c1cccc(NC(=O)c2ccccc2Nc2cccnc2)c1` [Compound 27], 2 to 10 µM.
With `CCc1ccc(C(=O)Nc2cccc(S(N)(=O)=O)c2)cc1` [Compound 28] the figure was above 10 µM.
Consider `Cc1cc(Cl)ccc1C(=O)Nc1cccc(S(N)(=O)=O)c1` [Compound 29], for which the IC50 was above 10 µM.
With `NS(=O)(=O)c1cccc(NC(=O)c2ccccc2OC(F)(F)F)c1` [Compound 30] the figure was above 10 µM; with `NS(=O)(=O)c1cccc(NC(=O)c2ccc(Cl)cc2)c1` [Compound 31], above 10 µM.
As for `NS(=O)(=O)c1cccc(NC(=O)c2ccc3c(c2)OCO3)c1` [Compound 32], the figure is above 10 µM.
On to `CN(C)c1ccc(C(=O)Nc2cccc(S(N)(=O)=O)c2)cc1` [Compound 33], for which the IC50 was above 10 µM.
As for `NS(=O)(=O)c1cccc(NC(=O)c2ccc(OC(F)(F)F)cc2)c1` [Compound 34, N-(3-(Aminosulfonyl)phenyl)-4-(trifluoromethoxy)benzamide], the figure is above 10 µM; as for `NS(=O)(=O)c1cccc(NC(=O)c2cccc(C(F)(F)F)c2)c1` [Compound 35], above 10 µM; as for `CC(=O)c1cccc(Nc2ccccc2C(=O)Nc2cccc(S(N)(=O)=O)c2)c1` [Compound 36], above 10 µM.
As for `COC(=O)c1ccc(C(=O)Nc2cccc(S(N)(=O)=O)c2)cc1` [Compound 37], the figure is above 10 µM; as for `Cc1ccc(C(=O)Nc2cccc(S(N)(=O)=O)c2)cc1` [Compound 38], above 10 µM; as for `NS(=O)(=O)c1cccc(NC(=O)c2cccc(Br)c2)c1` [Compound 40], above 10 µM.
In the case of `Cc1ccc(S(N)(=O)=O)cc1NC(=O)c1ccc(Cl)cc1[N+](=O)[O-]` [Compound 41], the IC50 was above 10 µM.
As for `COc1ccc(C(=O)Nc2cccc(S(N)(=O)=O)c2)cc1C(F)(F)F` [Compound 42], the figure is above 10 µM; as for `COc1cc(C)c(S(N)(=O)=O)cc1NC(=O)c1ccc(C(C)(C)C)cc1` [Compound 43], above 10 µM; as for `CN(C)c1ccccc1C(=O)Nc1cccc(S(N)(=O)=O)c1` [Compound 44], above 10 µM.
As for `CC(C)COC(=O)N1CCN(c2ccccc2C(=O)Nc2cccc(S(N)(=O)=O)c2)CC1` [Compound 45], the figure is above 10 µM.
As for `Cc1c(Cl)cc(S(N)(=O)=O)cc1NC(=O)c1ccc(C(C)(C)C)cc1` [Compound 46], the figure is above 10 µM; as for `NS(=O)(=O)c1cccc(NC(=O)c2ccccc2C(F)(F)F)c1` [Compound 47], above 10 µM.
For the compound `CC(C)(C)c1ccc(C(=O)Nc2cccc(S(N)(=O)=O)c2)c(Oc2ccccc2Cl)c1` [Compound 48], the IC50 is below 2 µM.
With `NS(=O)(=O)c1cccc(NC(=O)c2ccc(-c3ncns3)cc2)c1` [Compound 49] the figure was above 10 µM.
Consider `COc1ccc(Oc2ccccc2C(=O)Nc2cccc(S(N)(=O)=O)c2)cc1` [Compound 50], for which the IC50 lay in the range of 2 to 10 µM.
Regarding `NS(=O)(=O)c1cccc(NC(=O)c2ccccc2OCc2ccccc2)c1` [Compound 51], the IC50 was above 10 µM.
In the case of `N#Cc1ccc(C(=O)Nc2cccc(S(N)(=O)=O)c2)cc1` [Compound 52], the IC50 was above 10 µM.
On to `NS(=O)(=O)c1cccc(NC(=O)c2ccccc2Oc2ccccc2N2CCCCC2)c1` [Compound 53, 2-(2-(Piperidin-1-yl)phenoxy)-N-(3-(aminosulfonyl)phenyl)benzamide], for which the IC50 is below 2 µM.
In the case of `CC(=O)Nc1ccc(C(=O)Nc2cccc(S(N)(=O)=O)c2)cc1` [Compound 54], the IC50 is above 10 µM.
As for `Cc1ccccc1Oc1cc(C(C)(C)C)ccc1C(=O)Nc1cccc(S(N)(=O)=O)c1` [Compound 55], the IC50 was below 2 µM.
With `CS(=O)(=O)c1ccc(C(=O)Nc2cccc(S(N)(=O)=O)c2)cc1` [Compound 56] the figure was above 10 µM; with `CCCCOc1ccc(C(=O)Nc2cccc(S(N)(=O)=O)c2)cc1` [Compound 57], above 10 µM.
With `NS(=O)(=O)c1cccc(NC(=O)c2ccc(-c3ccccc3)cc2)c1` [Compound 58] the figure was above 10 µM; with `Cc1ccc(Oc2ccccc2C(=O)Nc2cccc(S(N)(=O)=O)c2)cc1` [Compound 59], 2 to 10 µM.
As for `NS(=O)(=O)c1cccc(NC(=O)c2ccc(SC(F)(F)F)cc2)c1` [Compound 60], the figure is above 10 µM; as for `CC(C)(C)c1ccc(C(=O)Nc2cccc(S(N)(=O)=O)c2)c(Oc2cccnc2)c1` [Compound 61], below 2 µM.
